IC50 and JAK1/TYK2 selectivity data for 16 molecules are collected here from patent EP4813463A2, “TYK2 INHIBITORS AND COMPOSITIONS AND METHODS THEREOF” (Lynk Pharmaceuticals Co. Ltd., priority 2023, dated 2024).

Where two headings read alike, the source gives them in different places.

The target in test [1] is T1, JAK1-JH2 domain (Homo sapiens, UniProt P23458).
T1 construct: JAK1-JH2 domain or TYK2-JH2 domain enzyme in assay buffer
In words: Binding activity test for JH2 domain of JAK1 (Tb-antibody/tracer FRET). The conditions noted are these: JH2 domain enzyme; 60 min at 25°C, then 4°C overnight; read-out: JAK1 JH2 Binding IC50. How it is done:
Binding Activity test for JH2 domain of JAK1 and TYK2 […] Add 8μL/well in echo source plate, echo will add 75nL/well with 3-fold serial dilution for 11 points in assay plate. 75nL DMSO for high control and low control. […] For low control, add 5μL/well assay buffer. And then spin down at 1000rpm and centrifuge for 30 seconds. After enzyme system prepared, add 5μL of Tb-antibody solution into each well of assay plate. Spin down at 1000 rpm and centrifuge for 30sec. After Tb-antibody added, also add 5μL of tracer into the assay plate. Spin down at 1000rpm and centrifuge for 30sec. Incubate for […] at 25°C firstly and then continue to incubate the plate at 4°C overnight. Read by envision in FRET mode. The Luminescence value was recorded by a multi-label reader Envision (PerkinElmer). […] Table 2. IC50 on JH2 domain activity (nM)

Test [2] concerns the target T2, TYK2-JH2 domain (Homo sapiens, UniProt P29597).
T2 construct: JAK1-JH2 domain or TYK2-JH2 domain enzyme in assay buffer
In words: Binding activity test for JH2 domain of TYK2 (Tb-antibody/tracer FRET). The conditions noted are these: for IC50: JH2 domain enzyme, 60 min at 25°C, then 4°C overnight, read-out: TYK2 JH2 Binding IC50; for JAK1/TYK2 selectivity: ratio of JAK1 JH2 to TYK2 JH2 binding IC50. Summed up:
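Competitive TR-FRET binding: compounds dispensed as an 11-point 3-fold dilution series, then Tb-labelled antibody and tracer added to the JH2 protein system. Incubated at 25°C, then overnight at 4°C; FRET signal read on Envision and IC50 (nM) derived.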

Test [3] relates to Ba/F3-FL-TYK2-P760L cells. In words: Anti-proliferative assay in engineered Ba/F3 cells (Cell-Titer Glo, 72 h). Type of test: cell-based. The conditions noted are these: 72 h compound treatment, concentration that causes 50% growth inhibition, read-out: Baf3-FL-T2P760L. Summed up: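 Ba/F3 cells carrying Tel-dimerization/JAK kinase fusion, IL-3-independent, in RPMI-1640 + 10% FBS; 9-point 3-fold dilutions from 20 µM (0.1% DMSO) added after 24 h, 72 h at 37 °C. Viability by Cell-Titer Glo ATP luminescence; % inhibition versus DMSO cells, blank-corrected, giving IC50.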

T2 sequence (P29597 589-875 limits assumed): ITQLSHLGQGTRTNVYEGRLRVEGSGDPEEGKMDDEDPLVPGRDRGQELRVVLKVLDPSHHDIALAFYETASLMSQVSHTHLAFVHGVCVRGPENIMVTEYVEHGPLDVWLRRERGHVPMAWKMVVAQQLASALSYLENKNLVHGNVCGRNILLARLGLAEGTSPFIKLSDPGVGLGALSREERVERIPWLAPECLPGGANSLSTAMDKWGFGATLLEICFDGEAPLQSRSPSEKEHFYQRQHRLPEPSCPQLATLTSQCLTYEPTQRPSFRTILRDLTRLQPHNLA
T1 sequence (P23458 583-855 limits assumed): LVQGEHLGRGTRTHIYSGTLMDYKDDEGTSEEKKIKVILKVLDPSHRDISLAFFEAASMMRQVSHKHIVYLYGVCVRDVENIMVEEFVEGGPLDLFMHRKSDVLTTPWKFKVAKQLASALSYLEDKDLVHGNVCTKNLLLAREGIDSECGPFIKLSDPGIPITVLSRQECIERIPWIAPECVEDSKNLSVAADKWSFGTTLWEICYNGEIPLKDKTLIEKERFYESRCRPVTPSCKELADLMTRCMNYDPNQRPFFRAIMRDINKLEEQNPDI

Take `[2H]C([2H])([2H])NC(=O)c1cnc(NC(=O)[C@@H]2C[C@@H]2F)cc1Nc1cnn2ccc(C(O)C(F)(F)F)c(OC)c12` (single isomer, unassigned) [Example 15B, 6-((1S,2S)-2-fluorocyclopropane-1-carboxamido)-4-((4-methoxy-5-((R*)-2,2,2-trifluoro-1-hydroxyethyl)pyrazolo[1,5-a]pyridin-3-yl)amino)-N-(methyl-d3)nicotinamide]: the IC50 in test [1] amounted to 20 nM; in test [2] it was 0.375 nM; in test [3] it was 870 nM. The JAK1/TYK2 selectivity in test [2] is 53.3.
On to `[2H]C([2H])([2H])NC(=O)c1cnc(NC(=O)C2CC23CC3)cc1Nc1cnn2ccc([C@H](O)C(F)(F)F)c(OC)c12` (single isomer, unassigned) [Example 32B, 4-((4-Methoxy-5-((S)-2,2,2-trifluoro-1-hydroxyethyl)pyrazolo[1,5-a]pyridin-3-yl)amino)-N-(methyl-d3)-6-((R*)-spiro[2.2]pentane-1-carboxamido)nicotinamide], for which the IC50 was determined as 11.5 nM in test [1], 0.108 nM in test [2] and 27.3 nM in test [3]. The JAK1/TYK2 selectivity in test [2] is listed as 106.2.
Take `[2H]C([2H])([2H])CC(=O)c1cnc(NC(=O)C2CC2)cc1Nc1nn(C)c2ccc(C(OC)C(F)(F)F)c(OC)c12` (single isomer, unassigned) [Example 65A, (R*)-N-(4-((4-methoxy-1-methyl-5-(2,2,2-trifluoro-1-methoxyethyl)-1H-indazol-3-yl)amino)-5-(propanoyl-3,3,3-d3)pyridin-2-yl)cyclopropanecarboxamide]: the results for the IC50 in test [1], in test [2] and in test [3] were > 298 nM, 0.54 nM and 117 nM, respectively. Also, in test [2], the JAK1/TYK2 selectivity is given as >553.80.
In the case of `[2H]C([2H])([2H])CC(=O)c1cnc(NC(=O)C2CC2)cc1Nc1nn(C)c2ccc(C(OC)C(F)(F)F)c(OC)c12` (single isomer, unassigned) [Example 65B, (S*)-N-(4-((4-methoxy-1-methyl-5-(2,2,2-trifluoro-1-methoxyethyl)-1H-indazol-3-yl)amino)-5-(propanoyl-3,3,3-d3)pyridin-2-yl)cyclopropanecarboxamide], the values for the IC50 in test [1], in test [2] and in test [3] were 12.5 nM, 0.09 nM and 2.1 nM, respectively. Besides, the JAK1/TYK2 selectivity in test [2] is 144.84.
For the molecule `[2H]C([2H])([2H])NC(=O)c1nnc(NC(=O)C2CC23CC3)cc1Nc1cnn2ccc([C@H](O)C(F)(F)F)c(OC)c12` (single isomer, unassigned) [Example 82A, 4-((4-Methoxy-5-((S)-2,2,2-trifluoro-1-hydroxyethyl)pyrazolo[1,5-a]pyridin-3-yl)amino)-N-(methyl-d3)-6-((R*)-spiro[2.2]pentane-1-carboxamido)pyridazine-3-carboxamide], the IC50 in test [1] was determined as 7.96 nM; in test [2], 0.21 nM; in test [3] (Mus musculus, BaF3, 72 h), 35 nM. Besides, the JAK1/TYK2 selectivity in test [2] is reported as 38.29.
For the molecule `[2H]C([2H])([2H])NC(=O)c1nnc(NC(=O)C2CC23CC3)cc1Nc1cnn2ccc([C@H](O)C(F)(F)F)c(OC)c12` (single isomer, unassigned) [Example 82B, 4-((4-Methoxy-5-((S)-2,2,2-trifluoro-1-hydroxyethyl)pyrazolo[1,5-a]pyridin-3-yl)amino)-N-(methyl-d3)-6-((S*)-spiro[2.2]pentane-1-carboxamido)pyridazine-3-carboxamide], the IC50 in test [1] is 6.32 nM; in test [2] it was 0.23 nM; in test [3], 27 nM. In test [2], the JAK1/TYK2 selectivity amounted to 27.48.
With `CCOC(c1ccc2c(c(Nc3cc(NC(=O)C4CC4)ncc3C(=O)OC)nn2C)c1OC)C(F)(F)F` (single isomer, unassigned) [Example 106B, Methyl (S*)-6-(cyclopropanecarboxamido)-4-((5-(1-ethoxy-2,2,2-trifluoroethyl)-4-methoxy-1-methyl-1H-indazol-3-yl)amino)nicotinate], the IC50 turned out to be 15.8 nM in test [1]; 0.21 nM in test [2]; 5.49 nM in test [3] (Mus musculus, BaF3, 72 h). Moreover, in test [2], the JAK1/TYK2 selectivity is recorded as 75.19.
For the molecule `CNC(=O)c1nnc(NC(=O)C2CC2)cc1Nc1cn(C)c2cccc(OC)c12` [Example 1, 6-(Cyclopropanecarboxamido)-4-((4-methoxy-1-methyl-1H-indol-3-yl)amino)-N-methylpyridazine-3-carboxamide], the IC50 worked out at 19.5 nM in test [1]; 2.33 nM in test [2]; 1170 nM in test [3] (Mus musculus, BaF3, 72 h). Further, the JAK1/TYK2 selectivity in test [2] was 8.4.
For `[2H]C([2H])([2H])NC(=O)c1cnc(NC(=O)C2CC2)cc1Nc1cnn2ccc(C(=O)OC)c(OC)c12` [Example 6, Methyl 3-((2-(cyclopropanecarboxamido)-5-((methyl-d3)carbamoyl)pyridin-4-yl)amino)-4-methoxypyrazolo[1,5-a]pyridine-5-carboxylate] the same measures were 7.45 nM, 0.482 nM, 146 nM and 15.4.
As for `[2H]C([2H])([2H])NC(=O)c1cnc(NC(=O)C2CC2)cc1Nc1cnn2ccc(C(F)(F)F)c(OC)c12` [Example 10, 6-(Cyclopropanecarboxamido)-4-((4-methoxy-5-(trifluoromethyl)pyrazolo[1,5-a]pyridin-3-yl)amino)-N-(methyl-d3)nicotinamide], the IC50 amounted to 9.71 nM in test [1]; 0.224 nM in test [2]; 120 nM in test [3] (Mus musculus, BaF3, 72 h). The JAK1/TYK2 selectivity in test [2] is reported as 43.3.
For `[2H]C([2H])([2H])NC(=O)c1cnc(NC(=O)[C@@H]2C[C@@H]2F)cc1Nc1cnn2ccc(C(F)(F)F)c(OC)c12` [Example 11, 6-((1S,2S)-2-fluorocyclopropane-1-carboxamido)-4-((4-methoxy-5-(trifluoromethyl)pyrazolo[1,5-a]pyridin-3-yl)amino)-N-(methyl-d3)nicotinamide] the same measures were 17.6 nM, 0.182 nM, 54.5 nM and 96.5.
On to `[2H]C([2H])([2H])NC(=O)c1cnc(NC(=O)C2CC2)cc1Nc1cnn2ccc(COC)c(OC)c12` [Example 16, 6-(Cyclopropanecarboxamido)-4-((4-methoxy-5-(methoxymethyl)pyrazolo[1,5-a]pyridin-3-yl)amino)-N-(methyl-d3)nicotinamide], for which the IC50 in test [1] was found to be 14.1 nM; in test [2], 0.22 nM; in test [3] (Mus musculus, BaF3, 72 h), 87 nM. For the same molecule, the JAK1/TYK2 selectivity in test [2] amounted to 64.0.
Turning to `[2H]C([2H])([2H])NC(=O)c1cnc(NC(=O)C2CC2)cc1Nc1cnn2ccc([C@H](OC([2H])([2H])[2H])C(F)(F)F)c(OC)c12` [Example 28, (S)-6-(cyclopropanecarboxamido)-4-((4-methoxy-5-(2,2,2-trifluoro-1-(methoxy-d3)ethyl)pyrazolo[1,5-a]pyridin-3-yl)amino)-N-(methyl-d3)nicotinamide], the IC50 in test [1] is 7.48 nM; in test [2] it was 0.073 nM; in test [3] (Mus musculus, BaF3, 72 h), 10.7 nM. Besides, in test [2], the JAK1/TYK2 selectivity was found to be 102.5.
Take `CCOC(=O)c1nnc(NC(=O)C2CC2)cc1Nc1cccc(-c2ncn(C)n2)c1OC` [Example 86, Ethyl 6-(cyclopropanecarboxamido)-4-((2-methoxy-3-(1-methyl-1H-1,2,4-triazol-3-yl)phenyl)amino)pyridazine-3-carboxylate]: the IC50 in test [1] and in test [2] was > 298 nM throughout.
In the case of `[2H]C([2H])([2H])OC(=O)c1nnc(NC(=O)C2CC2)cc1Nc1nc2ccc(N3CC(OC)C3)cn2n1` [Example 125, Methyl-d3 6-(cyclopropanecarboxamido)-4-((6-(3-methoxyazetidin-1-yl)-[1,2,4]triazolo[1,5-a]pyridin-2-yl)amino)pyridazine-3-carboxylate], the IC50 in test [1] was > 298 nM. For the same molecule, in test [2], the IC50 is 52.4 nM and the JAK1/TYK2 selectivity is on record as >5.70.
For `[2H]C([2H])([2H])NC(=O)c1cnc(NC(=O)C2CC23CC3)cc1Nc1nn(C)c2ccc([C@H](O)C(F)(F)F)c(OC)c12` (stereo partly drawn) [Example 199, 4-((4-Methoxy-1-methyl-5-((S)-2,2,2-trifluoro-1-hydroxyethyl)-1H-indazol-3-yl)amino)-N-(methyl-d3)-6-(spiro[2.2]pentane-1-carboxamido)nicotinamide] the same measures were 5.58 nM, 0.091 nM and 61.34.
